Test results reported in US8871753B2, “Macrocyclic compounds and their use as kinase inhibitors” (Incyte Corporation, priority 2008, dated 2014).
Where a name gives a salt, the structure may show the parent alone. Read-outs that look alike come from different tables or passages of the source.

Tests used:
[1] = biological target: T1, human JAK1 (a.a. 837-1142) (Homo sapiens, UniProt P23458); assay: In vitro JAK kinase assay (HTRF, phosphorylation of a biotinylated peptide), JAK1; format: biochemical; settings: read-out: JAK1 IC50
T1 construct: human JAK1 (a.a. 837-1142); His tag (N); made in house; host or cells: insect cells (baculovirus)
T1 sequence (P23458 849-1154): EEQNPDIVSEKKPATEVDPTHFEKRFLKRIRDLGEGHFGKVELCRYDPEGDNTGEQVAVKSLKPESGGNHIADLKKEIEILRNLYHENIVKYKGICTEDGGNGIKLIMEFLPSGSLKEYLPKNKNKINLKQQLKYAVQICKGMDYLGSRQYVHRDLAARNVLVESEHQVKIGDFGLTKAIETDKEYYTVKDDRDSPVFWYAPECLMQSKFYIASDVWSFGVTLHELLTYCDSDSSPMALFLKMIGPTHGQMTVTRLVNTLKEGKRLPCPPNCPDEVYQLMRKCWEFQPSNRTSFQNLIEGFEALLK
Summary of the method: (§1)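 Phosphorylation of a biotinylated peptide by the JAK kinase domain, detected by HTRF with Eu-Py20 and SA-APC. ATP was 90 μM for JAK1, 30 μM for JAK2 and 3 μM for JAK3. Reactions ran 1 h at room temperature and were stopped with EDTA, followed by 40 min antibody binding.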

[2] = biological target: T2, human JAK2 (a.a. 828-1132) (Homo sapiens, UniProt O60674); assay: In vitro JAK kinase assay (HTRF, phosphorylation of a biotinylated peptide), JAK2; format: biochemical
T2 construct: JAK2 (a.a. 828-1132); His tag (N); made in house; host or cells: insect cells (baculovirus)
T2 sequence (O60674 828-1132): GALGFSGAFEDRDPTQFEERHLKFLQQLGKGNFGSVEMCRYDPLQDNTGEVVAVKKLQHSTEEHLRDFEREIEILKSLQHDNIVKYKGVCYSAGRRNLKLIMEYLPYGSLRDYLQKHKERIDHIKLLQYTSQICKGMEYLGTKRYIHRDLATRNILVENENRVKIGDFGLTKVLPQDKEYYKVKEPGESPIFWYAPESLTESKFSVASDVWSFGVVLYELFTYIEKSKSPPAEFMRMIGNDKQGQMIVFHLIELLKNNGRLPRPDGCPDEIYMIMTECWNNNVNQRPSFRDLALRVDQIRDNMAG
Summary of the method: as §1

[3] = biological target: T3, human JAK3 (a.a. 781-1124) (Homo sapiens, UniProt P52333); assay: In vitro JAK kinase assay (HTRF, phosphorylation of a biotinylated peptide), JAK3; format: biochemical
T3 construct: JAK3 (a.a. 781-1124); His tag (N); made in house; host or cells: insect cells (baculovirus)
T3 sequence (P52333 781-1124): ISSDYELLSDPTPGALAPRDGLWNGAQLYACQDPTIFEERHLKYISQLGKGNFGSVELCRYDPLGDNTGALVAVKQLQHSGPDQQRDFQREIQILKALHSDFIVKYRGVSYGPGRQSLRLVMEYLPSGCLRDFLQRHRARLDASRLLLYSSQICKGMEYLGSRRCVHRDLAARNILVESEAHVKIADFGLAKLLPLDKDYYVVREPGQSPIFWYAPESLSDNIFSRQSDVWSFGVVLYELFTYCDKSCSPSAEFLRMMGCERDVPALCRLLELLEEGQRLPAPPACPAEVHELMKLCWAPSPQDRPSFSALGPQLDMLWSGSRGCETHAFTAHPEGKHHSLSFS
Summary of the method: as §1

TYK2 = TYK2 (Homo sapiens, UniProt P29597); assay: TYK2 kinase inhibition (Table A1); format: biochemical
Sequence of TYK2 (P29597 whole entry): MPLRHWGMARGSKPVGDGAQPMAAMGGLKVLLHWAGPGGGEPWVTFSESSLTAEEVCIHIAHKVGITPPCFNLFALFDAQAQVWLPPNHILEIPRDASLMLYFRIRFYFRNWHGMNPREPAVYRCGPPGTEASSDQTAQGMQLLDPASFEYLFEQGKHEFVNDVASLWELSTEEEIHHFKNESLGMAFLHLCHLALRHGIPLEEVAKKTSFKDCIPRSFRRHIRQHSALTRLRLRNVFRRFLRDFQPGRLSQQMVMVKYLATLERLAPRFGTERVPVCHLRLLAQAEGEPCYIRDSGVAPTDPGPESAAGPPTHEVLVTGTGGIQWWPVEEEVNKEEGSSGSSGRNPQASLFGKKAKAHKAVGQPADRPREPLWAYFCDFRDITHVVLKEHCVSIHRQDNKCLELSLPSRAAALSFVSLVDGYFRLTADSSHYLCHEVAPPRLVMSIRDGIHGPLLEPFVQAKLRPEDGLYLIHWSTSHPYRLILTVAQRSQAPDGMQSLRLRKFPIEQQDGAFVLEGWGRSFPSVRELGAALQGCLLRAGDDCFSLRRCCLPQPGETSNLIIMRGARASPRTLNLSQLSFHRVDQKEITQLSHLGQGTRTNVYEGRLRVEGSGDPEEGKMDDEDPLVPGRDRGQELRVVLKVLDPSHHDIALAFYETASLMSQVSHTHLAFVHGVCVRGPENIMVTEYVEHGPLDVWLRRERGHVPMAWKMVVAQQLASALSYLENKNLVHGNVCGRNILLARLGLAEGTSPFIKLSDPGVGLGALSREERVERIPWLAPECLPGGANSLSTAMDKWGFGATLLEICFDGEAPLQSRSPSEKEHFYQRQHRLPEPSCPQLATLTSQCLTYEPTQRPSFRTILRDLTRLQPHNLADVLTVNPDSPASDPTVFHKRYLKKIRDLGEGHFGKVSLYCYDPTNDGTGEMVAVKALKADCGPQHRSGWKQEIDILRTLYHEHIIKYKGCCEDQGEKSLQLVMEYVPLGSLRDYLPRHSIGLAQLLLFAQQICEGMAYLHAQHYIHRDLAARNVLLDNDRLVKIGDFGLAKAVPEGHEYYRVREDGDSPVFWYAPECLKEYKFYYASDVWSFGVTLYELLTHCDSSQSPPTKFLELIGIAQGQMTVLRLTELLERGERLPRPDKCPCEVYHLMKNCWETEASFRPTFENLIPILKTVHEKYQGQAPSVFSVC

[4] = biological target: T4, Recombinant Human Anaplastic Lymphoma Kinase (Homo sapiens, UniProt Q9UM73); assay: ALK HTRF kinase assay; format: biochemical; settings: for ALK % inhibition at a concentration of 500 nM or 1 mM: compound at a concentration of 500 nM or 1 mM
T4 construct: purchased Invitrogen, Carlsbad, Calif
T4 sequence (Q9UM73 19-1620): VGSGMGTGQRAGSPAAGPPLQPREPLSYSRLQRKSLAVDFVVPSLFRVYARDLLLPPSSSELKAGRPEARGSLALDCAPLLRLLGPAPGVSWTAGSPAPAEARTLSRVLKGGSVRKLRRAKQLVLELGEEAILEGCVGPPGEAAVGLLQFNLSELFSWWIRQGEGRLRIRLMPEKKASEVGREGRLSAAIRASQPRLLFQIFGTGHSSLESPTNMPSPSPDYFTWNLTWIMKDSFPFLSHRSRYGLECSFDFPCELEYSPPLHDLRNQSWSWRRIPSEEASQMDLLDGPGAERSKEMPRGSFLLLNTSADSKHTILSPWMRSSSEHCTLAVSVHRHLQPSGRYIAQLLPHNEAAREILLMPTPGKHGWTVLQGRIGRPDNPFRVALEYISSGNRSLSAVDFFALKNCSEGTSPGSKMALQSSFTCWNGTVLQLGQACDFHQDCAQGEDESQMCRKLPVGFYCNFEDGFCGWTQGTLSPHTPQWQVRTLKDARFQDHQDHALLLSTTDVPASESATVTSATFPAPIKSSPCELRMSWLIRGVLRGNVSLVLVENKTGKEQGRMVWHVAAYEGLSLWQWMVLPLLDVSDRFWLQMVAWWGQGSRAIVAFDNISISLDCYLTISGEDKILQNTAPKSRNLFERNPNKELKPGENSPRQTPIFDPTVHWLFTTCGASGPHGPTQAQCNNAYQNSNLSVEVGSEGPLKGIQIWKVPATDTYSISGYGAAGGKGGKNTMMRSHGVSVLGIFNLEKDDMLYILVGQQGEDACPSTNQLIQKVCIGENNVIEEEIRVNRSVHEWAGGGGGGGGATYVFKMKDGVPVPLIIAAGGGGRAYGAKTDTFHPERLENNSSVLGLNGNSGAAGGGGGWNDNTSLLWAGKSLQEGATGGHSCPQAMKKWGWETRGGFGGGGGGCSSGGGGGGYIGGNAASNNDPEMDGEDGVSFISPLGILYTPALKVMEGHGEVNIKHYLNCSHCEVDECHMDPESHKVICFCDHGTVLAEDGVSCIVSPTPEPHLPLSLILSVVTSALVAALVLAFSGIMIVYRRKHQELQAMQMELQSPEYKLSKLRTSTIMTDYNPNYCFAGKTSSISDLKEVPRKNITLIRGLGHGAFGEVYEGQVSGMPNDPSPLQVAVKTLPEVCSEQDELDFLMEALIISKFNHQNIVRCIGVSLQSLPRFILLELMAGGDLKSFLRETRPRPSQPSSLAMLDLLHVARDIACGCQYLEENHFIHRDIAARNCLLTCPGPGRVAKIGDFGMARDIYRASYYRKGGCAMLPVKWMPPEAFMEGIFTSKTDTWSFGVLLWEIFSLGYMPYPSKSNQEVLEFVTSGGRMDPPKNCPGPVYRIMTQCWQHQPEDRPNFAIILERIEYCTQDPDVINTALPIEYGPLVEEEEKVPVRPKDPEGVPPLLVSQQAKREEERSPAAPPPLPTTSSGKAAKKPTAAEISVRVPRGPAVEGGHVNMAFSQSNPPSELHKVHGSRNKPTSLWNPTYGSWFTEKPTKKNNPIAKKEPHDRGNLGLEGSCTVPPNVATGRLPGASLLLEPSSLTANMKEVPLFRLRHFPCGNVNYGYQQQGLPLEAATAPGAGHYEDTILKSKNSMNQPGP
Summary of the method: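 Kinase activity of the recombinant human protein is measured on a biotinylated peptide, with a Eu-W1024 anti-phosphotyrosine antibody and streptavidin-allophycocyanin generating the homogeneous time-resolved fluorescence signal. Inhibition curves are fitted to yield IC50.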

[5] = cn_pd bond, 13-membered ring, Pd(OAc)2/Xantphos/Cs2CO3/Et3N, 1,4-dioxane/DMF 1:1, 160.0 °C
[6] = compound at a concentration of 500 nM or 1 mM (not specified), cells shown as percentage
[7] = method AA1 (90 μM ATP) or AA2 (1000 μM ATP), not stated per value
[8] = method AA1 (30 μM ATP) or AA2 (1000 μM ATP), not stated per value
[9] = method AA1 (3 μM ATP) or AA2 (1000 μM ATP), not stated per value
[10] = compound at 500 nM or 1 mM, 90 μM ATP

Structure (SMILES): Clc1cnc2nc1Nc1cccc(c1)CCOc1cccc(c1)N2 [Example D5, 6-Chloro-16-oxa-2,4,8,23-tetraazatetracyclo[15.3.1.1(3,7).1(9,13)]tricosa-1(21),3(23),4,6,9(22),10,12,17,19-nonaene trifluoroacetate]
- ring closure, yield after HPLC (from OCCc1cccc(Nc2nc(Nc3cccc(O)c3)ncc2Cl)c1, ether bond, 14-membered ring, PPh3/DIAD, THF, 8.5 mM, 25.0 °C, 2.0 h): 20%
- IC50 ([1]; Table D1): 30 nM
- IC50 ([2]; Table D1): 15 nM
- IC50 ([3]; Table D1): 36 nM
- IC50 (TYK2; Table D1): 12 nM
- IC50 ([4]; Table D1, 90 μM ATP): 509 nM

Structure (SMILES): Nc1ccc2cc1CCc1cncc(c1)Nc1ncc(F)c(n1)N2
- ring closure, yield after HPLC (from Nc1cncc(CCc2cc(Nc3nc(Cl)ncc3F)ccc2N)c1, cn_pd bond, 13-membered ring, Pd(OAc)2/Xantphos/Cs2CO3/Et3N, 1,4-dioxane, 158.0 mM, 160.0 °C, 0.33 h): 8%

Structure (SMILES): Fc1cnc2nc1Nc1cccc(c1)CCc1ccnc(c1)N2 [Example C16, 6-Fluoro-2,4,8,19,22-pentaazatetracyclo[14.3.1.1(3,7).1(9,13)]docosa-1(20),3(22),4,6,9(21),10,12,16,18-nonaene]
- ring closure, isolated yield ([5]; from Nc1cc(CCc2cccc(Nc3nc(Cl)ncc3F)c2)ccn1, 60.0 mM, 0.5 h): 30%
- IC50 [1]: > 1000 nM
- IC50 [2]: 60 nM
- IC50 [3]: 350 nM
- IC50 (TYK2): 83 nM
- ALK % inhibition at a concentration of 500 nM or 1 mM [4]: 14%

Structure (SMILES): Fc1cnc2nc1Nc1cccc(c1)CCc1cncc(c1)N2 [Example C21, 6-Fluoro-2,4,8,18,22-pentaazatetracyclo[14.3.1.1(3,7).1(9,13)]docosa-1(20),3(22),4,6,9(21),10,12,16,18-nonaene bis(trifluoroacetate)]
- ring closure, yield after HPLC (from Nc1cncc(CCc2cccc(Nc3nc(Cl)ncc3F)c2)c1, cn_pd bond, 13-membered ring, Pd(OAc)2/Xantphos/Cs2CO3/Et3N, 1,4-dioxane, 87.0 mM, 150.0 °C, 2.0 h): 37%
- IC50 [1]: 13 nM
- IC50 [2]: 28 nM
- IC50 [3]: 111 nM
- IC50 (TYK2): 15 nM
- ALK % inhibition at a concentration of 500 nM or 1 mM [4]: 26%

Structure (SMILES): Fc1cnc2nc1Nc1cccc(c1)CCc1cccc(n1)N2 [Example C18, 6-Fluoro-2,4,8,20,22-pentaazatetracyclo[14.3.1.1(3,7).1(9,13)]docosa-1(20),3(22),4,6,9(21),10,12,16,18-nonaene]
- ring closure, isolated yield ([5]; from Nc1cccc(CCc2cccc(Nc3nc(Cl)ncc3F)c2)n1, 60.0 mM, 1.0 h): 25%
- IC50 [1]: > 1000 nM
- IC50 [2]: > 1000 nM
- IC50 [3]: > 1000 nM
- IC50 (TYK2): > 1000 nM
- ALK % inhibition at a concentration of 500 nM or 1 mM [4]: 3%

Structure (SMILES): Clc1cnc2nc1Nc1cccc(c1)/C=C\c1cncc(c1)N2 [Example C20, (14Z)-6-Chloro-2,4,8,18,22-pentaazatetracyclo[14.3.1.1(3,7).1(9,13)]docosa-1(20),3(22),4,6,9(21),10,12,14,16,18-decaene bis(trifluoroacetate)]
- ring closure, yield after HPLC (from Nc1cncc(/C=C\c2cccc(Nc3nc(Cl)ncc3Cl)c2)c1, cn_pd bond, 13-membered ring, Pd(OAc)2/Xantphos/Cs2CO3/Et3N, 1,4-dioxane, 70.0 mM, 150.0 °C, 1.0 h): 30%
- IC50 [1]: 2.9 nM
- IC50 [2]: 2.3 nM
- IC50 [3]: 13 nM
- IC50 (TYK2): 4.4 nM
- ALK % inhibition at a concentration of 500 nM or 1 mM [4]: 26%

Structure (SMILES): Clc1cnc2nc1Nc1cccc(c1)CCc1ccnc(c1)N2 [Example C15, 6-Chloro-2,4,8,19,22-pentaazatetracyclo[14.3.1.1(3,7).1(9,13)]docosa-1(20),3(22),4,6,9(21),10,12,16,18-nonaene]
- ring closure, isolated yield ([5]; from Nc1cc(CCc2cccc(Nc3nc(Cl)ncc3Cl)c2)ccn1, 57.0 mM, 0.33 h): 61%
- IC50 [1]: 700 nM
- IC50 [2]: 87 nM
- IC50 (TYK2): 106 nM
- ALK % inhibition at a concentration of 500 nM or 1 mM [4]: 6%

Structure (SMILES): Cc1cnc2nc1Nc1ccc(N)c(c1)CCc1cncc(c1)N2 [Example C50, 6-Methyl-2,4,8,18,22-pentaazatetracyclo[14.3.1.1(3,7).1(9,13)]docosa-1(20),3(22),4,6,9(21),10,12,16,18-nonaen-12-amine tris(trifluoroacetate)]
- ring closure, yield after HPLC (from Cc1cnc(Cl)nc1Nc1ccc(N)c(CCc2cncc(N)c2)c1, cn_pd bond, 13-membered ring, Pd(OAc)2/Xantphos/Cs2CO3/Et3N, 1,4-dioxane, 135.0 mM, 160.0 °C, 0.33 h): 50%
- IC50 [1]: 33 nM
- IC50 [2]: 111 nM
- IC50 [3]: > 400 nM
- IC50 (TYK2): 80 nM

Structure (SMILES): Clc1cnc2nc1Nc1cccc(c1)CCc1cncc(c1)N2 [Example C19, 6-Chloro-2,4,8,18,22-pentaazatetracyclo[14.3.1.1(3,7).1(9,13)]docosa-1(20),3(22),4,6,9(21),10,12,16,18-nonaene bis(trifluoroacetate)]
- ring closure, yield after HPLC (from Nc1cncc(CCc2cccc(Nc3nc(Cl)ncc3Cl)c2)c1, cn_pd bond, 13-membered ring, Pd(OAc)2/Xantphos/Cs2CO3/Et3N, 1,4-dioxane, 140.0 mM, 150.0 °C, 1.0 h): 28%
- IC50 [1]: 2.9 nM
- IC50 [2]: 7 nM
- IC50 [3]: 28 nM
- IC50 (TYK2): 10 nM
- ALK % inhibition at a concentration of 500 nM or 1 mM [4]: 45%

Structure (SMILES): Nc1ccc2cc1CCc1cncc(c1)Nc1ncc(Cl)c(n1)N2 [Example B20, 6-Chloro-2,4,8,18,22-pentaazatetracyclo[14.3.1.1(3,7).1(9,13)]docosa-1(20),3(22),4,6,9(21),10,12,16,18-nonaen-12-amine tris(trifluoroacetate)]
- ring closure, yield after HPLC (from Nc1cncc(CCc2cc(Nc3nc(Cl)ncc3Cl)ccc2N)c1, cn_pd bond, 13-membered ring, Pd2(dba)3/Xantphos/Cs2CO3/DIEA, 1,4-dioxane/DMF 3:1, 77.0 mM, 160.0 °C, 0.5 h): 23%
- IC50 ([1]; Table B1): 1 nM
- IC50 ([2]; Table B1): 1.3 nM
- IC50 ([3]; Table B1): 6.7 nM
- IC50 (TYK2; Table B1): 1.6 nM
- ALK % of inhibition at a concentration of 500 nM or 1 mM [4, 6]: 51%

Structure (SMILES): N#Cc1cccnc1N1CCC(CC(=O)Nc2ccc3cc2CCc2cncc(c2)Nc2ncc(Cl)c(n2)N3)CC1 [Example A177, N-[6-Chloro-2,4,8,18,22-pentaazatetracyclo[14.3.1.1(3,7).1(9,13)]docosa-1(20),3(22),4,6,9(21),10,12,16,18-nonaen-12-yl]-2-[1-(3-cyanopyridin-2-yl)piperidin-4-yl]acetamide tris(trifluoroacetate)]
- IC50 [1, 7]: 14 nM
- IC50 [2, 8]: 95 nM
- IC50 [3, 9]: > 200 nM
- IC50 (TYK2): > 200 nM
- ALK % of inhibition at a concentration of 500 nM or 1 mM [4, 10]: 34%

Structure (SMILES): N#Cc1ccc(S(=O)(=O)N2CCC(CC(=O)Nc3ccc4cc3CCc3cncc(c3)Nc3ncc(Cl)c(n3)N4)CC2)cc1 [Example A199, N-[6-Chloro-2,4,8,18,22-pentaazatetracyclo[14.3.1.1(3,7).1(9,13)]docosa-1(20),3(22),4,6,9(21),10,12,16,18-nonaen-12-yl]-2-{1-[(4-cyanophenyl)sulfonyl]piperidin-4-yl}acetamide bis(trifluoroacetate)]
- IC50 [1, 7]: 32 nM
- IC50 [2, 8]: 199 nM
- IC50 [3, 9]: > 200 nM
- IC50 (TYK2): > 200 nM
- ALK % of inhibition at a concentration of 500 nM or 1 mM [4, 10]: 41%

Structure (SMILES): CC(C)C(=O)N1CCC(CC(=O)Nc2ccc3cc2CCc2cccc(c2)Nc2ncc(Cl)c(n2)N3)CC1 [Example A89, N-[6-Chloro-2,4,8,22-tetraazatetracyclo[14.3.1.1(3,7).1(9,13)]docosa-1(20),3(22),4,6,9(21),10,12,16,18-nonaen-12-yl]-2-(1-isobutyrylpiperidin-4-yl)acetamide trifluoroacetate]
- IC50 [1, 7]: 6.5 nM
- IC50 [2, 8]: 3.7 nM
- IC50 [3, 9]: 57 nM
- IC50 (TYK2): 3 nM
- ALK % of inhibition at a concentration of 500 nM or 1 mM [4, 10]: 29%

Structure (SMILES): O=C(CC1CCN(C(=O)c2cnccn2)CC1)Nc1ccc2cc1CCc1cncc(c1)Nc1ncc(Cl)c(n1)N2 [Example A102, N-[6-Chloro-2,4,8,18,22-pentaazatetracyclo[14.3.1.1(3,7).1(9,13)]docosa-1(20),3(22),4,6,9(21),10,12,16,18-nonaen-12-yl]-2-[1-(pyrazin-2-ylcarbonyl)piperidin-4-yl]acetamide tris(trifluoroacetate)]
- IC50 [1, 7]: 10 nM
- IC50 [2, 8]: 20 nM
- IC50 [3, 9]: 170 nM
- IC50 (TYK2): 19 nM
- ALK % of inhibition at a concentration of 500 nM or 1 mM [4, 10]: 21%

Structure (SMILES): O=C(Nc1ccc2cc1CCc1cccc(c1)Nc1ncc(Cl)c(n1)N2)N[C@H]1CCN(C(=O)c2ccncc2)C1 [Example B234, N-[6-Chloro-2,4,8,22-tetraazatetracyclo[14.3.1.1(3,7).1(9,13)]docosa-1(20),3(22),4,6,9(21),10,12,16,18-nonaen-12-yl]-N′-[(3S)-1-isonicotinoylpyrrolidin-3-yl]urea bis(trifluoroacetate)]
- IC50 ([1]; Table B1): 4 nM
- IC50 ([2]; Table B1): 6.5 nM
- IC50 ([3]; Table B1): 40 nM
- IC50 (TYK2; Table B1): 11 nM
- ALK % of inhibition at a concentration of 500 nM or 1 mM [4, 6]: 31%
